Data published in patent US20140162974A1, “METHODS FOR MODULATION OF PHOSPHORUS AND FGF23” (Luitpold Pharmaceuticals, Inc., priority 2012, published 2014).

Key:
[1] = system: hemoglobin, ferritin, TSAT, hepcidin; test: Example 3 trial: erythropoiesis and iron parameters; assay type: in vivo, human; set-up: Mean increase in ferritin from baseline to highest value: unit not given here; settings: for Mean increase in hepcidin from baseline to highest value / effect of a single dose on hemoglobin and iron indices / proportion of group in which hemoglobin increased by 2.0 g/dL: in vivo; for Hemoglobin increase ≧2.0 g/dL, n (%): intention-to-treat in safety population, anytime to day 35; for Mean increase in ferritin from baseline to highest value / Mean increase in hemoglobin from baseline to highest value / Mean increase in transferrin saturation from baseline to highest value: mean ± standard error; for effect on TSAT and serum hepcidin levels: p≦0.001; for serum hepcidin levels by day 7: remained significantly elevated on day 35
Description: (§1) Study visits were on Days 0 (when iron was infused), 1 (24 hours after iron infusion), 7, 14, and 35. The primary objectives were to determine the effect of iron deficiency on cFGF23 and iFGF23 levels and the effect of intravenous iron on iFGF23 and cFGF23 levels.
(§2) Randomization occurred centrally via a fax-based system. […] The complete dose was infused over 15 minutes on day 0. […] An initial test dose of 25 mg was administered slowly over 5 minutes.
(§3) Laboratory testing of blood and three-hour urine collections was performed at the screening visit and on study days 0 (when iron was infused), 1 (24 hours after iron infusion), 7, 14, and 35 (see e.g., FIG. 2A). Any subject who experienced a reduction in serum phosphate below the normal range after day 0 underwent additional phosphate measurements at 14 day intervals following day 35 until the level returned to the normal reference range. Safety evaluations of all subjects included ascertainment of adverse events, physical examinations at all study visits, and laboratory assessments. Any subject who withdrew from the study received a follow-up phone call to ascertain adverse events 30 days after they received study drug.
The pre-specified primary endpoints were changes in blood and urine markers of phosphate and bone metabolism among the evaluable population, defined as those subjects with baseline and at least one post-randomization set of FGF23 and blood and urinary phosphate levels. Secondary endpoints included the proportion of subjects achieving a hemoglobin increase […] anytime between baseline and day 35, and the change from baseline to highest hemoglobin, ferritin, and TSAT anytime during the 35-day study period. Additional safety endpoints included incidence, severity, and seriousness of adverse events, and incidence of treatment-emergent abnormal clinical laboratory values in the safety population, defined as all subjects who received the study drug regardless of subsequent laboratory testing.
Blood and urine samples were sent to a central laboratory for analysis (Covance Central Laboratory Service, Indianapolis, Ind.). Hemoglobin, blood counts, iron indices, electrolytes, and serum and urinary phosphate and creatinine were measured with standard, automated, multi-analyte techniques. Urinary fractional excretion of phosphate (FEPi) was calculated from the three-hour, morning urine collections as urinary phosphate x serum creatinine/serum phosphate x urinary creatinine. Serum levels of 25-hydroxyvitamin D and 1,25-dihydroxyvitamin D were measured in duplicate by radioimmunoassay (DiaSorin, Stillwater, Minn.) with intra-assay coefficients of variation (CV)<11.6%. Plasma C-terminal FGF23 (cFGF23) was measured in duplicate in EDTA-plasma samples using a human FGF23 immunometric assay capable of detecting both the intact peptide and its C-terminal fragments (Immutopics, San Clemente, Ca) with intra-assay CV≦3.8%. Because cFGF23 testing was performed in parallel with rolling enrollment and follow-up, all cFGF23 assay plates tested combinations of baseline and post-intervention samples from multiple study participants. Serum intact FGF23 (iFGF23) was measured in batches of baseline and post-intervention samples from multiple study participants at study end using an immunometric assay that detects the intact peptide exclusively (Kyowa Medex Company, Shizuoka, Japan) with intra-assay CV<2.7%. Serum hepcidin levels were measured on days 0, 7, and 35 using an enzyme-linked immunosorbent assay (Intrinsic LifeSciences, La Jolla, Calif.) with intra-assay CV≦19%. Urinary amino acids, glucose, albumin, and beta 2 microglobulin were measured to test for the possibility of global proximal tubular dysfunction. Urinary deoxypyridinoline cross link, and serum osteocalcin and bone-specific alkaline phosphatase were measured to assess bone turnover. […]

[2] = system: C-terminal FGF23 (cFGF23); test: Example 3 trial: plasma C-terminal FGF23; assay type: in vivo, human; settings: for effect on cFGF23 levels: in vivo; for lowering of cFGF23 levels within 24 hours: intravenous iron in iron deficient women; for C-terminal FGF23, Day 1 / C-terminal FGF23, Day 7 / C-terminal FGF23, Day 14 / C-terminal FGF23, Day 35: mean ± standard error, unit from the 3rd table
Description: as §1, §2, §3
Blood and urine samples were sent to a central laboratory for analysis (Covance Central Laboratory Service, Indianapolis, Ind.). Hemoglobin, blood counts, iron indices, electrolytes, and serum and urinary phosphate and creatinine were measured with standard, automated, multi-analyte techniques. Urinary fractional excretion of phosphate (FEPi) was calculated from the three-hour, morning urine collections as urinary phosphate x serum creatinine/serum phosphate x urinary creatinine. Serum levels of 25-hydroxyvitamin D and 1,25-dihydroxyvitamin D were measured in duplicate by radioimmunoassay (DiaSorin, Stillwater, Minn.) with intra-assay coefficients of variation (CV)<11.6%. Plasma C-terminal FGF23 (cFGF23) was measured in duplicate in EDTA-plasma samples using a human FGF23 immunometric assay capable of detecting both the intact peptide and its C-terminal fragments (Immutopics, San Clemente, Ca) with intra-assay CV≦3.8%. Because cFGF23 testing was performed in parallel with rolling enrollment and follow-up, all cFGF23 assay plates tested combinations of baseline and post-intervention samples from multiple study participants. Serum intact FGF23 (iFGF23) was measured in batches of baseline and post-intervention samples from multiple study participants at study end using an immunometric assay that detects the intact peptide exclusively (Kyowa Medex Company, Shizuoka, Japan) with intra-assay CV<2.7%. Serum hepcidin levels were measured on days 0, 7, and 35 using an enzyme-linked immunosorbent assay (Intrinsic LifeSciences, La Jolla, Calif.) with intra-assay CV≦19%. Urinary amino acids, glucose, albumin, and beta 2 microglobulin were measured to test for the possibility of global proximal tubular dysfunction. Urinary deoxypyridinoline cross link, and serum osteocalcin and bone-specific alkaline phosphatase were measured to assess bone turnover.
Baseline characteristics are presented as mean±standard error for continuous variables and as proportions for categorical variables. The association between iron indices and baseline and change in FGF23 levels was assessed with Spearman correlations. Restricted maximum likelihood-based repeated measures analyses (linear mixed models) that considered the effects of treatment, visit, and treatment x time interaction, with baseline values treated as a fixed covariate were used for the primary analyses of mean changes from baseline in continuous markers of phosphate homeostasis. The models employed unstructured covariance structures without imputing missing values. All outcome variables that were not normally distributed were analyzed after natural log-transformation. […]

Row | Substance | Mean increase in hepcidin from baseline to highest value [1] [ng/mL] | effect of a single dose on hemoglobin and iron indices [1] | proportion of group in which hemoglobin increased by 2.0 g/dL [1] [%] | Hemoglobin increase ≧2.0 g/dL, n (%) [1] | Mean increase in ferritin from baseline to highest value [1] | Mean increase in hemoglobin from baseline to highest value [1] [g/dL] | Mean increase in transferrin saturation from baseline to highest value [1] [%] | effect on TSAT and serum hepcidin levels [1] | serum hepcidin levels by day 7 [1] | C-terminal FGF23, Change from baseline ([2]; Day 1) [%] | C-terminal FGF23, Change from baseline ([2]; Day 7) [%] | C-terminal FGF23, Change from baseline ([2]; Day 14) [%] | C-terminal FGF23, Change from baseline ([2]; Day 35) [%] | effect on cFGF23 levels [2] | lowering of cFGF23 levels within 24 hours [2] [%] | C-terminal FGF23, Day 1 [2] [RU/mL] | C-terminal FGF23, Day 7 [2] [RU/mL] | C-terminal FGF23, Day 14 [2] [RU/mL] | C-terminal FGF23, Day 35 [2] [RU/mL] | further results
1 | iron dextran [reference compound] | 77.8 | significantly increase | 53 | 16 (53) n (%) | 189 ± 21 | 2.2 ± 0.2 | 44 ± 3.0 | increased TSAT and serum hepcidin levels significantly | significantly increased | −82.5 | −85.6 | −87.3 | −80.0 | rapidly lowered | 80 | 152 ± 17.5 | 114 ± 17.7 | 107 ± 16.0 | 170 ± 51.2 | 
2 | polynuclear iron (III)-hydroxide 4(R)-(poly-(1→4)-O-α-glucopyranosyl)-oxy-2(R),3(S),5(R),6-tetrahydroxy-hexanoate [FCM] | 33.4 | significantly increase | 60 | 15 (60) n (%) | 306 ± 41 | 2.0 ± 0.3 | 68 ± 6.4 | increased TSAT and serum hepcidin levels significantly | significantly increased | −78.6 | −80.9 | −77.5 | −78.9 | rapidly lowered | 80 | 177 ± 12.4 | 165 ± 34.9 | 170 ± 55.8 | 182 ± 73.7 | absolute difference in proportion with hemoglobin increase, FCM vs iron dextran ([1]; 95% CI −23.2, 36.6%, p=0.79): 6.7%; increase in serum ferritin by day 7 compared to iron dextran ([1]; thereafter levels similar): greater increase; cFGF23 in FCM subjects who did vs did not develop serum phosphate<2.0 mg/dL ([2]; stratified analysis): decreased similarly in both groups
